# Results from US20230339854A1, “Negative Allosteric Modulation of GluN3-Containing N-Methyl-D-Aspartate Receptors” (Emory University, priority 2020, published 2023).
# Target: T1, human GluN1^FA,TL/GluN3A receptors (Homo sapiens, UniProt Q8TCU5)
# T1 construct: Human GluN3A (NP_597702.2) and rat GluN3B (NP_579842.2) were synthesized and subcloned into SP6 plasmids; expressed in transfected cells; host or cells: Xenopus laevis oocytes, cRNA injection (GluN1:GluN3 1:3)
# Experiment: Two-electrode voltage-clamp recordings of GluN1^FA,TL/GluN3A receptors in Xenopus oocytes
# Type: cell-based
# Conditions: hGluN1^FA,TL/hGluN3A; read-out: IC50
# Source text: cDNA encoding human wild-type (WT) GluN1-1a (GenBank accession numbers NP_015566, hereafter GluN1) and rat GluN1-1a (NP_058706.1) were synthesized and subcloned into pGEMHE plasmid; some experiments used the rat splice variant GluN1-4a (NP_001257531.1). Human GluN3A (NP_597702.2) and rat GluN3B (NP_579842.2) were synthesized and subcloned into SP6 plasmids. For most experiments, human GluN1 was co-expressed with human GluN3A, except for mutagenesis experiments where rat GluN1 was co-expressed with human GluN3A. Rat GluN1-4a was always expressed with rat GluN3B.
# Defolliculated Xenopus laevis oocytes (stage V-VI) were obtained from Ecocyte BioScience (Austin, Texas), or prepared from commercially available Xenopus ovaries (Xenopus 1, Dexter, MI) as previously described (Hansen, et al., Mol. Pharmacol., 2013). A Drummond Nanoject II (Broomall, PA) was used to inject oocytes with cRNAs encoding GluN1 and GluN3 at a 1:3 ratio in RNase-free water. The cRNA was diluted as needed to give responses with amplitudes ranging between 200-2000 nA (0.2-10 ng total cRNA). Following cRNA injection, the oocytes were stored at 15-19° C. in Barth's solution that contained (in mM) 88 NaCl, 2.4 NaHCO3, 1 KCl, 0.33 Ca(NO3)2, 0.41 CaCl2), 0.82 MgSO4, and 5 Tris-HCl (pH 7.4 with NaOH), supplemented with 1 μg/ml streptomycin (Invitrogen, Carlsbad, CA) and 100 μg/ml gentamicin (Fisher Scientific, Pittsburgh, PA). Recordings were performed 2-5 days following cRNA microinjection at room temperature (23° C.) using a two-electrode voltage-clamp amplifier (OC725, Warner Instrument, Hamilton, CT). The signal was low-pass filtered at 10-20 Hz (4-pole, −3 dB Bessel) and digitized at the Nyquist rate using PCI-6025E or USB-6212 BNC data acquisition boards (National Instruments, Austin, TX) using EasyOocyte (http://www.easyoocyte.io/). Oocytes were placed in a custom-made chamber and continuously perfused (2.5 ml/min) with oocyte recording solution containing (in mM) 90 NaCl, 1 KCl, 10 HEPES, 0.5-1.0 BaCl2, and 0.01 EDTA (pH 7.4 with NaOH). Solutions were applied by gravity, and solution exchange was controlled through a rotary valve (Hamilton, Reno, NV). Recording electrodes were filled with 0.3-3.0 M KCl, and current responses were recorded at a holding potential of −40 mV.
# Response (%)=(100−minimum)/(1+([concentration]/IC50)^nH)+minimum (2) • where nH is the Hill slope, IC50 is the concentration that produces a half-maximal effect, and minimum is the degree of residual inhibition at a saturating concentration of the negative allosteric modulator.
# The afore-referenced compounds were screened in the same assay as EU1180-438 to determine their effects on hGluN1^FA,TL/hGluN3A receptors. Selected compounds that inhibited by more than 20% at the concentration at which they were initially evaluated (either 10 or 30 μM) were analyzed further, and a dose-response curve was generated to determine their IC50 values.
# T1 sequence (Q8TCU5 24-1115, other chains not shown): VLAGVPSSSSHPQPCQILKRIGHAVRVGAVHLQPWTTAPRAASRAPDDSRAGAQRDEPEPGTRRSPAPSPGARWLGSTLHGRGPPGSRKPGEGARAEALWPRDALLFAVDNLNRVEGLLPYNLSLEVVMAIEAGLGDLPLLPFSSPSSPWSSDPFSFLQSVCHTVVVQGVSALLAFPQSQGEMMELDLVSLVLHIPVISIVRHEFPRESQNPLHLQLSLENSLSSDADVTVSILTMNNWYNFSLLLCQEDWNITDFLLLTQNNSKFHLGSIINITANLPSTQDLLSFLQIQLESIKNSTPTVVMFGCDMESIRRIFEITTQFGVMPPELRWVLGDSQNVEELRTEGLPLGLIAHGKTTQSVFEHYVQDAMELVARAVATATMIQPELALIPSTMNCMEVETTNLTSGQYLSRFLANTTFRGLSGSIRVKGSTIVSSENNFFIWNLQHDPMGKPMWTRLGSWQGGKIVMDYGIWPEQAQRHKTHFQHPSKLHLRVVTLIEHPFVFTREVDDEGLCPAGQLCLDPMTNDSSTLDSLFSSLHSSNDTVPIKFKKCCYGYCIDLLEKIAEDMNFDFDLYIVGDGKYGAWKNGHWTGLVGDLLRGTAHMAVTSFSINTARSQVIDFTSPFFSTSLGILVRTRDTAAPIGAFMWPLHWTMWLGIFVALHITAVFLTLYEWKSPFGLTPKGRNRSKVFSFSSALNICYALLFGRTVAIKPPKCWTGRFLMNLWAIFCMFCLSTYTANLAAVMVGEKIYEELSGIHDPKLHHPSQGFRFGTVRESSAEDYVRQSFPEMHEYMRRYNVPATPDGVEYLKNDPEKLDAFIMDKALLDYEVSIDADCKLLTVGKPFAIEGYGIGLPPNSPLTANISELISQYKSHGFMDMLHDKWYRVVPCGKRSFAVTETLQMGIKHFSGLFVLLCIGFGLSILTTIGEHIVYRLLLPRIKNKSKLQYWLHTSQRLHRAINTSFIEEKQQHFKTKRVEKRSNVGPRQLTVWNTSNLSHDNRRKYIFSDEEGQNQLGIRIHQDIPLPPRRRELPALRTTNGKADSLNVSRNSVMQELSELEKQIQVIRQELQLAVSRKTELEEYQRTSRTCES
row,IC50 [µM],Structure (SMILES)
1,15.7,"CCOc1ccc(OCC(c2ccc(OC(C)C)cc2)N2Cc3ccc(F)cc3C2=O)cc1 (stereo not drawn) [EU1180-590, 6-fluoro-2-(2-(4-ethoxyphenoxy)-1-(4-isopropoxyphenyl)ethyl)isoindolin-1-one]"
2,63,"COc1cc(F)c(C(COc2cccc(C)n2)N2Cc3ccc(Cl)cc3C2=O)c(F)c1 (stereo not drawn) [EU1180-611, 6-Chloro-2-(1-(2,6-difluoro-4-methoxyphenyl)-2-((6-methylpyridin-2-yl)oxy)ethyl)isoindolin-1-one]"

# Same assay, conditions: read-out: hGluN1^FA,TL/hGluN3A (100 × Idrug/Icontrol at 30 μM drug)
row,remaining activity at 30 µM [%],Structure (SMILES)
1,66,"COc1ccc(C(COc2cccc(C)n2)N2Cc3cc(Br)ccc3C2=O)c(F)c1 (stereo not drawn) [EU1180-606, 5-Bromo-2-(1-(2-fluoro-4-methoxyphenyl)-2-((6-methylpyridin-2-yl)oxy)ethyl)isoindolin-1-on]"
2,62,"COc1ccc(C(COc2cccc(C)n2)N2Cc3ccc(Br)cc3C2=O)c(F)c1 (stereo not drawn) [EU1180-607, 6-Bromo-2-(1-(2-fluoro-4-methoxyphenyl)-2-((6-methylpyridin-2-yl)oxy)ethyl)isoindolin-1-one]"
3,70,"COc1cc(F)c(C(COc2cccc(C)n2)N2Cc3ccccc3C2=O)c(F)c1 (stereo not drawn) [EU1180-608, 2-(1-(2,6-Difluoro-4-methoxyphenyl)-2-((6-methylpyridin-2-yl)oxy)ethyl)isoindolin-1-one]"
4,81,"COc1cc(F)c(C(COc2cccc(C)n2)N2Cc3ccc(C(F)(F)F)cc3C2=O)c(F)c1 (stereo not drawn) [EU1180-609, 2-(1-(2,6-Difluoro-4-methoxyphenyl)-2-((6-methylpyridin-2-yl)oxy)ethyl)-6-(trifluoromethyl)isoindolin-1-one]"
5,76,"COc1cc(F)c(C(COc2cccc(C)n2)N2Cc3cc(Cl)ccc3C2=O)c(F)c1 (stereo not drawn) [EU1180-610, 5-Chloro-2-(1-(2,6-difluoro-4-methoxyphenyl)-2-((6-methylpyridin-2-yl)oxy)ethyl)isoindolin-1-one]"
6,57,"COc1cc(F)c(C(COc2cccc(C)n2)N2Cc3ccc(Cl)cc3C2=O)c(F)c1 (stereo not drawn) [EU1180-611, 6-Chloro-2-(1-(2,6-difluoro-4-methoxyphenyl)-2-((6-methylpyridin-2-yl)oxy)ethyl)isoindolin-1-one]"
7,79,"COc1cc(F)c(C(COc2cccc(C)n2)N2Cc3cc(Br)ccc3C2=O)c(F)c1 (stereo not drawn) [EU1180-612, 5-Bromo-2-(1-(2,6-difluoro-4-methoxyphenyl)-2-((6-methylpyridin-2-yl)oxy)ethyl)isoindolin-1-one]"
8,89,"COc1cc(F)c(C(COc2cccc(C)n2)N2Cc3cc(F)ccc3C2=O)c(F)c1 (stereo not drawn) [EU1180-613, 2-(1-(2,6-Difluoro-4-methoxyphenyl)-2-((6-methylpyridin-2-yl)oxy)ethyl)-5-fluoroisoindolin-1-one]"
9,57,"COc1cc(F)c(C(COc2cccc(C)n2)N2Cc3ccc(F)cc3C2=O)c(F)c1 (stereo not drawn) [EU1180-614, 2-(1-(2,6-Difluoro-4-methoxyphenyl)-2-((6-methylpyridin-2-yl)oxy)ethyl)-6-fluoroisoindolin-1-one]"

# The remaining lines, values behind:
row,Structure (SMILES),remaining activity at 30 µM [%]
1,"CCOc1ccc(OCC(c2ccc(OC(C)C)cc2)N2Cc3ccc(C(F)(F)F)cc3C2=O)cc1 (stereo not drawn) [EU1180-587, 2-(2-(4-ethoxyphenoxy)-1-(4-isopropoxyphenyl)ethyl)-6-(trifluoromethyl)isoindolin-1-one]",98
2,"CCOc1ccc(OCC(c2ccc(OC(C)C)cc2)N2Cc3ccc(Cl)cc3C2=O)cc1 (stereo not drawn) [EU1180-588, 6-chloro-2-(2-(4-ethoxyphenoxy)-1-(4-isopropoxyphenyl)ethyl)isoindolin-1-one]",67
3,"CCOc1ccc(OCC(c2ccc(OC(C)C)cc2)N2Cc3cc(Cl)ccc3C2=O)cc1 (stereo not drawn) [EU1180-589, 5-chloro-2-(2-(4-ethoxyphenoxy)-1-(4-isopropoxyphenyl)ethyl)isoindolin-1-one]",87
4,"CCOc1ccc(OCC(c2ccc(OC(C)C)cc2)N2Cc3ccc(F)cc3C2=O)cc1 (stereo not drawn) [EU1180-590, 6-fluoro-2-(2-(4-ethoxyphenoxy)-1-(4-isopropoxyphenyl)ethyl)isoindolin-1-one]",35
5,"CCOc1ccc(OCC(c2ccc(OC(C)C)cc2)N2Cc3cc(F)ccc3C2=O)cc1 (stereo not drawn) [EU1180-591, 5-fluoro-2-(2-(4-ethoxyphenoxy)-1-(4-isopropoxyphenyl)ethyl)isoindolin-1-one]",90
6,"CCOc1ccc(OCC(c2ccc(OC(C)C)cc2)N2Cc3ccc(Br)cc3C2=O)cc1 (stereo not drawn) [EU1180-592, 6-bromo-2-(2-(4-ethoxyphenoxy)-1-(4-isopropoxyphenyl)ethyl)isoindolin-1-one]",78
7,"COc1ccc(C(COc2cccc(C)n2)N2Cc3ccc(C(F)(F)F)cc3C2=O)cc1 (stereo not drawn) [EU1180-593, 2-(1-(4-Methoxyphenyl)-2-((6-methylpyridin-2-yl)oxy)ethyl)-6-(trifluoromethyl)isoindolin-1-one]",83
8,"COc1ccc(C(COc2cccc(C)n2)N2Cc3cc(Cl)ccc3C2=O)cc1 (stereo not drawn) [EU1180-594, 5-Chloro-2-(1-(4-methoxyphenyl)-2-((6-methylpyridin-2-yl)oxy)ethyl)isoindolin-1-one]",73
9,"COc1ccc(C(COc2cccc(C)n2)N2Cc3ccc(Cl)cc3C2=O)cc1 (stereo not drawn) [EU1180-595, 6-Chloro-2-(1-(4-methoxyphenyl)-2-((6-methylpyridin-2-yl)oxy)ethyl)isoindolin-1-one]",75
10,"COc1ccc(C(COc2cccc(C)n2)N2Cc3cc(Br)ccc3C2=O)cc1 (stereo not drawn) [EU1180-596, 5-Bromo-2-(1-(4-methoxyphenyl)-2-((6-methylpyridin-2-yl)oxy)ethyl)isoindolin-1-one]",92
11,"COc1ccc(C(COc2cccc(C)n2)N2Cc3ccc(Br)cc3C2=O)cc1 (stereo not drawn) [EU1180-597, 6-Bromo-2-(1-(4-methoxyphenyl)-2-((6-methylpyridin-2-yl)oxy)ethyl)isoindolin-1-one]",69
12,"COc1ccc(C(COc2cccc(C)n2)N2Cc3cc(F)ccc3C2=O)cc1 (stereo not drawn) [EU1180-598, 5-Fluoro-2-(1-(4-methoxyphenyl)-2-((6-methylpyridin-2-yl)oxy)ethyl)isoindolin-1-one]",89
13,"COc1ccc(C(COc2cccc(C)n2)N2Cc3ccc(F)cc3C2=O)cc1 (stereo not drawn) [EU1180-599, 6-Fluoro-2-(1-(4-methoxyphenyl)-2-((6-methylpyridin-2-yl)oxy)ethyl)isoindolin-1-one]",57
14,"COc1ccc(C(COc2cccc(C)n2)N2Cc3ccccc3C2=O)c(F)c1 (stereo not drawn) [EU1180-600, 2-(1-(2-Fluoro-4-methoxyphenyl)-2-((6-methylpyridin-2-yl)oxy)ethyl)isoindolin-1-one]",87
15,"COc1ccc(C(COc2cccc(C)n2)N2Cc3cc(F)ccc3C2=O)c(F)c1 (stereo not drawn) [EU1180-601, 5-Fluoro-2-(1-(2-fluoro-4-methoxyphenyl)-2-((6-methylpyridin-2-yl)oxy)ethyl)isoindolin-1-one]",79
16,"COc1ccc(C(COc2cccc(C)n2)N2Cc3ccc(F)cc3C2=O)c(F)c1 (stereo not drawn) [EU1180-602, 6-Fluoro-2-(1-(2-fluoro-4-methoxyphenyl)-2-((6-methylpyridin-2-yl)oxy)ethyl)isoindolin-1-one]",73
17,"COc1ccc(C(COc2cccc(C)n2)N2Cc3ccc(C(F)(F)F)cc3C2=O)c(F)c1 (stereo not drawn) [EU1180-603, 2-(1-(2-Fluoro-4-methoxyphenyl)-2-((6-methylpyridin-2-yl)oxy)ethyl)-6-(trifluoromethyl)isoindolin-1-one]",84
18,"COc1ccc(C(COc2cccc(C)n2)N2Cc3cc(Cl)ccc3C2=O)c(F)c1 (stereo not drawn) [EU1180-604, 5-Chloro-2-(1-(2-fluoro-4-methoxyphenyl)-2-((6-methylpyridin-2-yl)oxy)ethyl)isoindolin-1-one]",81
19,"COc1ccc(C(COc2cccc(C)n2)N2Cc3ccc(Cl)cc3C2=O)c(F)c1 (stereo not drawn) [EU1180-605, 6-Chloro-2-(1-(2-fluoro-4-methoxyphenyl)-2-((6-methylpyridin-2-yl)oxy)ethyl)isoindolin-1-one]",69
